From US8586739B2, “Heterocyclic compounds and their uses” (Amgen Inc., priority 2007, dated 2013)
pIC50: −log10 of the molar value.

Tested on: human B cells
Assay: Human B cells proliferation stimulated by anti-IgM (3H thymidine)
Assay type: cell-based
Details: 72 h, purified human B cells, anti-Human IgM + CD40L-LZ
Method: Human B Cells Proliferation stimulate by anti-IgM
Isolate PBMCs from Leukopac or from human fresh blood. Isolate human B cells by using Miltenyi protocol and B cell isolation kit II.—human B cells were Purified by using autoMACS® column.
Activation of Human B Cells
Use 96 well Flat bottom plate, plate 50000/well purified B cells in B cell proffer-ation medium (DMEM+5% FCS, 10 mM Hepes, 50 μM 2-mercaptoethanol); 150 μL medium contain 250 ng/mL CD40L-LZ recombinant protein (Amgen) and 2 μg/mL anti-Human IgM antibody (Jackson ImmunoReseach Lab.#109-006-129), mixed with 50 μL B cell medium containing PI3K inhibitors and incubate 72 h at 37° C. incubator. After 72 h, pulse labeling B cells with 0.5-1 uCi/well ^3H thymidine for overnight ˜18 h, and harvest cell using TOM harvester.

Clc1cccc2cc(CNc3ncnc4[nH]cnc34)c(-c3nccs3)nc12 [N-((8-chloro-2-(1,3-thiazol-2-yl)-3-quinolinyl)methyl)-9H-purin-6-amine]
pIC50 (Homo sapiens, B-cell): 6.68

Clc1cccc2cc(CNc3ncnc4[nH]cnc34)c(-c3cn[nH]c3)nc12 [N-((8-chloro-2-(1H-pyrazol-4-yl)-3-quinolinyl)methyl)-9H-purin-6-amine]
pIC50 (Homo sapiens, B-cell): 6.80

Fc1ccc(F)c(-c2nc3c(Cl)cccc3cc2CNc2ncnc3[nH]cnc23)c1 [N-((8-chloro-2-(2,5-difluorophenyl)-3-quinolinyl)methyl)-9H-purin-6-amine]
pIC50 (Homo sapiens, B-cell): 7.42

CC(C)c1ncccc1-c1nc2c(Cl)cccc2cc1CNc1ncnc2[nH]cnc12 [N-((8-chloro-2-(2-(1-methylethyl)-3-pyridinyl)-3-quinolinyl)methyl)-9H-purin-6-amine]
pIC50 (Homo sapiens, B-cell): 7.51

CC(C)c1ccccc1-c1nc2c(Cl)cccc2cc1CNc1ncnc2[nH]cnc12 [N-((8-chloro-2-(2-(1-methylethyl)phenyl)-3-quinolinyl)methyl)-9H-purin-6-amine]
pIC50 (Homo sapiens, B-cell): 7.75

Clc1cccc2cc(CNc3ncnc4[nH]cnc34)c(-c3ccccc3-c3nn[nH]n3)nc12 [N-((8-chloro-2-(2-(2H-tetrazol-5-yl)phenyl)-3-quinolinyl)methyl)-9H-purin-6-amine]
pIC50 (Homo sapiens, B-cell): 5.01

CS(=O)(=O)c1ccccc1-c1nc2c(Cl)cccc2cc1CNc1ncnc2[nH]cnc12 [N-((8-chloro-2-(2-(methylsulfonyl)phenyl)-3-quinolinyl)methyl)-9H-purin-6-amine]
pIC50 (Homo sapiens, B-cell): 6.82

Fc1ccc(Cl)c(-c2nc3c(Cl)cccc3cc2CNc2ncnc3[nH]cnc23)c1 [N-((8-chloro-2-(2-chloro-5-fluorophenyl)-3-quinolinyl)methyl)-9H-purin-6-amine]
pIC50 (Homo sapiens, B-cell): 7.42

Clc1ccccc1-c1nc2c(Cl)cccc2cc1CNc1ccnc2[nH]cnc12 [N-((8-chloro-2-(2-chlorophenyl)-3-quinolinyl)methyl)-3H-imidazo[4,5-b]pyridin-7-amine]
pIC50 (Homo sapiens, B-cell): 6.44

Cc1ncccc1-c1nc2c(Cl)cccc2cc1CNc1ncnc2[nH]cnc12 [N-((8-chloro-2-(2-methyl-3-pyridinyl)-3-quinolinyl)methyl)-9H-purin-6-amine]
pIC50 (Homo sapiens, B-cell): 7.87

Clc1cccc2cc(CNc3ncnc4[nH]cnc34)c(-c3ccccn3)nc12 [N-((8-chloro-2-(2-pyridinyl)-3-quinolinyl)methyl)-9H-purin-6-amine]
pIC50 (Homo sapiens, B-cell): 7.47

Clc1cccc2cc(CNc3ncnc4[nH]cnc34)c(-c3cccs3)nc12 [N-((8-chloro-2-(2-thiophenyl)-3-quinolinyl)methyl)-9H-purin-6-amine]
pIC50 (Homo sapiens, B-cell): 6.98

Fc1cc(F)cc(-c2nc3c(Cl)cccc3cc2CNc2ncnc3[nH]cnc23)c1 [N-((8-chloro-2-(3,5-difluorophenyl)-3-quinolinyl)methyl)-9H-purin-6-amine]
pIC50 (Homo sapiens, B-cell): 7.25

CC(C)c1cccc(-c2nc3c(Cl)cccc3cc2CNc2ncnc3[nH]cnc23)c1 [N-((8-chloro-2-(3-(1-methylethyl)phenyl)-3-quinolinyl)methyl)-9H-purin-6-amine]
pIC50 (Homo sapiens, B-cell): 6.52

Clc1cccc(-c2nc3c(Cl)cccc3cc2CNc2ncnc3[nH]cnc23)c1 [N-((8-chloro-2-(3-chlorophenyl)-3-quinolinyl)methyl)-9H-purin-6-amine]
pIC50 (Homo sapiens, B-cell): 6.39

FC1CCCN(c2nc3c(Cl)cccc3cc2CNc2ncnc3[nH]cnc23)C1 (stereo not shown) [N-((8-chloro-2-(3-fluoro-1-piperidinyl)-3-quinolinyl)methyl)-9H-purin-6-amine]
pIC50 (Homo sapiens, B-cell): 7.02

Fc1cccc(-c2nc3c(Cl)cccc3cc2CNc2ncnc3[nH]cnc23)c1 [N-((8-chloro-2-(3-fluorophenyl)-3-quinolinyl)methyl)-9H-purin-6-amine]
pIC50 (Homo sapiens, B-cell): 7.56

Cc1cccnc1-c1nc2c(Cl)cccc2cc1CNc1ncnc2[nH]cnc12 [N-((8-chloro-2-(3-methyl-2-pyridinyl)-3-quinolinyOmethyl)-9H-purin-6-amine]
pIC50: 7.10

CC(C)c1ccncc1-c1nc2c(Cl)cccc2cc1CNc1ncnc2[nH]cnc12 [N-((8-chloro-2-(4-(1-methylethyl)-3-pyridinyl)-3-quinolinyl)methyl)-9H-purin-6-amine]
pIC50 (Homo sapiens, B-cell): 7.59

CC(C)c1ncncc1-c1nc2c(Cl)cccc2cc1CNc1ncnc2[nH]cnc12 [N-((8-chloro-2-(4-(1-methylethyl)-5-pyrimidinyl)-3-quinolinyl)methyl)-9H-purin-6-amine]
pIC50 (Homo sapiens, B-cell): 7.10

FC(F)(F)c1ccncc1-c1nc2c(Cl)cccc2cc1CNc1ncnc2[nH]cnc12 [N-((8-chloro-2-(4-(trifluoromethyl)-3-pyridinyl)-3-quinolinyl)methyl)-9H-purin-6-amine]
pIC50 (Homo sapiens, B-cell): 7.16

Fc1ccc(-c2nc3c(Cl)cccc3cc2CNc2ncnc3nc[nH]c23)cc1 [N-((8-chloro-2-(4-fluorophenyl)-3-quinolinyl)methyl)-7H-purin-6-amine]
pIC50 (Homo sapiens, B-cell): 6.58

CC(Oc1ccc(F)cc1-c1nc2c(Cl)cccc2cc1CNc1ncnc2[nH]cnc12)c1ccccc1 (stereo not shown) [N-((8-chloro-2-(5-fluoro-2-(1-phenylethoxy)phenyl)-3-quinolinyl)methyl)-9H-purin-6-amine]
pIC50 (Homo sapiens, B-cell): 6.25

Fc1ccc(OCc2cccnc2)c(-c2nc3c(Cl)cccc3cc2CNc2ncnc3[nH]cnc23)c1 [N-((8-chloro-2-(5-fluoro-2-(3-pyridinylmethoxy)phenyl)-3-quinolinyl)methyl)-9H-purin-6-amine]
pIC50 (Homo sapiens, B-cell): 6.75

COc1ccc(F)cc1-c1nc2c(Cl)cccc2cc1CNc1ncnc2[nH]cnc12 [N-((8-chloro-2-(5-fluoro-2-methoxyphenyl)-3-quinolinyl)methyl)-9H-purin-6-amine]
pIC50 (Homo sapiens, B-cell): 7.56

Clc1cccc2cc(CNc3ncnc4[nH]cnc34)c(-c3ccns3)nc12 [N-((8-chloro-2-(5-isothiazolyl)-3-quinolinyl)methyl)-9H-purin-6-amine]
pIC50 (Homo sapiens, B-cell): 7.18

Clc1cccc2cc(CNc3ncnc4[nH]cnc34)c(Oc3ccccc3)nc12 [N-((8-chloro-2-phenoxy-3-quinolinyl)methyl)-9H-purin-6-amine]
pIC50 (Homo sapiens, B-cell): 7.58

Clc1cccc2cc(CNc3ncnc4[nH]cnc34)c(-c3ccccc3)nc12 [N-((8-chloro-2-phenyl-3-quinolinyl)methyl)-9H-purin-6-amine]
pIC50 (Homo sapiens, B-cell): 6.66

Fc1cccc2cc(CNc3ncnc4nc[nH]c34)c(-c3ccccc3)nc12 [N-((8-fluoro-2-phenyl-3-quinolinyl)methyl)-7H-purin-6-amine]
pIC50 (Homo sapiens, B-cell): 6.62

C[C@@H](Nc1ncnc2[nH]cnc12)c1cc2c(Cl)cccc2nc1-c1cccc(F)c1 [N-((R)-1-(5-Chloro-2-(3-fluorophenyl)quinolin-3-yl)ethyl)-9H-purin-6-amine]
pIC50 (Homo sapiens, B-cell): 7.47

C[C@@H](Nc1ncnc2[nH]cnc12)c1nc2cccc(Cl)c2nc1-c1cccc(F)c1 [N-((R)-1-(5-Chloro-3-(3-fluorophenyl)quinoxalin-2-yl)ethyl)-9H-purin-6-amine]
pIC50 (Homo sapiens, B-cell): 7.86

C[C@H](Nc1ncnc2[nH]cnc12)c1cc2c(Cl)cccc2nc1-c1cccc(F)c1 [N-((S)-1-(5-Chloro-2-(3-fluorophenyl)quinolin-3-yl)ethyl)-9H-purin-6-amine]
pIC50 (Homo sapiens, B-cell): 7.85

C[C@H](Nc1ncnc2[nH]cnc12)c1nc2cccc(Cl)c2nc1-c1cccc(F)c1 [N-((S)-1-(5-Chloro-3-(3-fluorophenyl)quinoxalin-2-yl)ethyl)-9H-purin-6-amine]
pIC50 (Homo sapiens, B-cell): 8.07

C[C@H](Nc1ncnc2[nH]cnc12)c1cc2cccc(Cl)c2nc1-c1cccc(F)c1F [N-((S)-1-(8-Chloro-2-(2,3-difluorophenyl)quinolin-3-yl)ethyl)-9H-purin-6-amine]
pIC50 (Homo sapiens, B-cell): 8.12
